# Results taken from ChEMBL document CHEMBL4028808, “Design and synthesis of selective CDK8/19 dual inhibitors: Discovery of 4,5-dihydrothieno[3',4':3,4]benzo[1,2-d]isothiazole derivatives” (Bioorg Med Chem, 2017).
# Active and inactive are the calls of the source. The calls are words filed in the database; no cut-off is given here.
# Tests used:
# Mus musculus = experiment: In vivo inhibition of CDK8-mediated STAT1 phosphorylation in human RPMI8226 cells xenografted in C.B17/Icr scid/scid Jcl mouse at 2.5 mg/kg, po bid administered for 14 days measured 2 to 8 hrs post last dose; format: functional, organism-based
# [1] = molecular target: Insulin receptor (Homo sapiens) (UniProt P06213); experiment: Inhibition of IRK (unknown origin) at <1 uM using biotinylated poly[Glu:Tyr] (4:1) as substrate pretreated for 5 mins followed by substrate addition measured after 60 mins by Alphascreen assay
# [2] = molecular target: Phosphatidylinositol 4,5-bisphosphate 3-kinase catalytic subunit alpha isoform (Homo sapiens) (UniProt P42336); experiment: Inhibition of PI3Kalpha (unknown origin) at <1 uM
# [3] = molecular target: Mitogen-activated protein kinase 3 (Homo sapiens) (UniProt P27361); experiment: Inhibition of ERK1 (unknown origin) at <1 uM using MBP as substrate preincubated for 5 mins followed by substrate addition measured after 60 mins in presence of [gamma33P]ATP by scintillation counter method
# Chain of Mitogen-activated protein kinase 3 (Homo sapiens) (P27361 whole entry): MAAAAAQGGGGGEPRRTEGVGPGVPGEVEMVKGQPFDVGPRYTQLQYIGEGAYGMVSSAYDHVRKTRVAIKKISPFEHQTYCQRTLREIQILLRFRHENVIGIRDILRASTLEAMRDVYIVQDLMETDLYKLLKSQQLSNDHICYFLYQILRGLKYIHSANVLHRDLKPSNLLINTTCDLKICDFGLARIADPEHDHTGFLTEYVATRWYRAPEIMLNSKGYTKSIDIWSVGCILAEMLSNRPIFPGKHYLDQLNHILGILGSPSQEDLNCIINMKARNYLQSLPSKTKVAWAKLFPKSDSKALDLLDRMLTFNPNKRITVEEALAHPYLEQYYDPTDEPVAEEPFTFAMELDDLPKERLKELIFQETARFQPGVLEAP
# Chain of Insulin receptor (Homo sapiens) (P06213 28-758 limits assumed): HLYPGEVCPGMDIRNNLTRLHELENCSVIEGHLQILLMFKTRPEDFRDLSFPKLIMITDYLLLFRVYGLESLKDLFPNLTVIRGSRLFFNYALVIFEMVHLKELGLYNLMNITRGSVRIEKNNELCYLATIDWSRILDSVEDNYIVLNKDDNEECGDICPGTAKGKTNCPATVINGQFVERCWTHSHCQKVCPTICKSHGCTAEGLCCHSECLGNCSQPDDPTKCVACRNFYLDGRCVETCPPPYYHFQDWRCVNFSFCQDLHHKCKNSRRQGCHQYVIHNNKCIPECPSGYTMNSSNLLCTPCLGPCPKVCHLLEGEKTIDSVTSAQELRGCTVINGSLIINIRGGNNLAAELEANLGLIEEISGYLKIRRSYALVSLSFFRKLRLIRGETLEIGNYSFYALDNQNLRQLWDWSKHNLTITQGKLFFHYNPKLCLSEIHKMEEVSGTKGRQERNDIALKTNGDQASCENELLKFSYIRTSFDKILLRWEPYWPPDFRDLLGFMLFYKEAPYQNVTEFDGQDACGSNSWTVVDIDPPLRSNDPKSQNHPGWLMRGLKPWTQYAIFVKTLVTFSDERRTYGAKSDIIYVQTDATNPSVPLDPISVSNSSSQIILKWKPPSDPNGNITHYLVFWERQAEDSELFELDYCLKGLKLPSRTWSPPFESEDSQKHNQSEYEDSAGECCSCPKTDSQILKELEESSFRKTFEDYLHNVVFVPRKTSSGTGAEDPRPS
# Chain of Insulin receptor (Homo sapiens) (P06213 763-1382 limits assumed): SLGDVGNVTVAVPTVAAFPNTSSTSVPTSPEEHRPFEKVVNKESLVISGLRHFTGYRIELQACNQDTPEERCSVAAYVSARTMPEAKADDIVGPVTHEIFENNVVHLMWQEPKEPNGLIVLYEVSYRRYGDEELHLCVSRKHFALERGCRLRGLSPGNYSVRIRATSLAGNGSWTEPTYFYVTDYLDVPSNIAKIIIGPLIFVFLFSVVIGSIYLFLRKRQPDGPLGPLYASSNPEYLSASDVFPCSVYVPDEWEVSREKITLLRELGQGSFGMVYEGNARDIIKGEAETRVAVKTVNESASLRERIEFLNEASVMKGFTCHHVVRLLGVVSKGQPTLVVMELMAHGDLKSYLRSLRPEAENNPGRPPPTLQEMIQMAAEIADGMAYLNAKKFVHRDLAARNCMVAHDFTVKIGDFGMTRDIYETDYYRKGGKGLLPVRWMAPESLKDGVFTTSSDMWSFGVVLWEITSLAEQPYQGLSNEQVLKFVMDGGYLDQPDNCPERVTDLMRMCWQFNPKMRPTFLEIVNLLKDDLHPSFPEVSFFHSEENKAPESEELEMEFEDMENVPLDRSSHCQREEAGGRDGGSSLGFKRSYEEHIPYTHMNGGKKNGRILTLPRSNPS
# Chain of Phosphatidylinositol 4,5-bisphosphate 3-kinase catalytic subunit alpha isoform (Homo sapiens) (P42336 whole entry, canonical isoform): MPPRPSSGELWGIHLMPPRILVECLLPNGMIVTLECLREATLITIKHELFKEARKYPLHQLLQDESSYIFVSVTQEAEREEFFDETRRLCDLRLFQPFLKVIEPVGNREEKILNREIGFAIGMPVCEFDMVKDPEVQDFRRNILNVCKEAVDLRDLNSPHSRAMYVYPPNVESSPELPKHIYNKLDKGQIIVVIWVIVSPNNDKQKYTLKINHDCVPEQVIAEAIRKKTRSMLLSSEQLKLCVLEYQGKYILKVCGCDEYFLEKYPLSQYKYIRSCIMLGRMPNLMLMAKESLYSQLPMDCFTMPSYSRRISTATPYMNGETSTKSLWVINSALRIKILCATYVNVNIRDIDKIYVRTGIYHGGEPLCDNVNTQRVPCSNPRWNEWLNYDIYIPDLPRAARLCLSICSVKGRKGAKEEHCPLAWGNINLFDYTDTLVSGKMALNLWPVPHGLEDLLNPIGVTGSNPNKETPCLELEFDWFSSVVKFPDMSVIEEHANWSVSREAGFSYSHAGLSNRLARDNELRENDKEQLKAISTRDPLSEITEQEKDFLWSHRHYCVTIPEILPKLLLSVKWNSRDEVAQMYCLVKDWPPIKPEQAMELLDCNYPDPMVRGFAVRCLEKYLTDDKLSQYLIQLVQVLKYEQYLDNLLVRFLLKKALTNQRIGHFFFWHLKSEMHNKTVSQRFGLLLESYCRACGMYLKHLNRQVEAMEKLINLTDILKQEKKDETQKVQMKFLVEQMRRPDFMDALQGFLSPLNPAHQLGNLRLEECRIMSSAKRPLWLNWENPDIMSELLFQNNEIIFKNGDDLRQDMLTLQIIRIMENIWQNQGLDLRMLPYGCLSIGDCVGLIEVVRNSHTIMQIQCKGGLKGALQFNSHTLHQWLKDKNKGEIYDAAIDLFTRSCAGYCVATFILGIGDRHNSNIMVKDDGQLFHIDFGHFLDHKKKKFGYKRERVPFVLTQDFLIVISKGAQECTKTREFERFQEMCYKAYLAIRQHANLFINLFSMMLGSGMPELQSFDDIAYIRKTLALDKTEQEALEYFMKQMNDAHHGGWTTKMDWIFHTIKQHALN
compound,measurement,setting,value
COCCNC(=O)c1ccc(Oc2sc(C(N)=O)c3c2-c2sncc2CC3)cn1,inhibition,Mus musculus,Active
same,inhibition,[1],inactive
same,inhibition,[2],inactive
same,inhibition,[3],inactive
